Data as given in patent US11555012B2 (Nimbus Artemis, Inc., priority 2018, dated 2023).

biological target: ACL (Homo sapiens (Human), UniProt P53396); test: ADP-Glo Assay; conditions: not given
Sequence (P53396 other isoform, or with tags, fused parts or gaps isoform P53396-2): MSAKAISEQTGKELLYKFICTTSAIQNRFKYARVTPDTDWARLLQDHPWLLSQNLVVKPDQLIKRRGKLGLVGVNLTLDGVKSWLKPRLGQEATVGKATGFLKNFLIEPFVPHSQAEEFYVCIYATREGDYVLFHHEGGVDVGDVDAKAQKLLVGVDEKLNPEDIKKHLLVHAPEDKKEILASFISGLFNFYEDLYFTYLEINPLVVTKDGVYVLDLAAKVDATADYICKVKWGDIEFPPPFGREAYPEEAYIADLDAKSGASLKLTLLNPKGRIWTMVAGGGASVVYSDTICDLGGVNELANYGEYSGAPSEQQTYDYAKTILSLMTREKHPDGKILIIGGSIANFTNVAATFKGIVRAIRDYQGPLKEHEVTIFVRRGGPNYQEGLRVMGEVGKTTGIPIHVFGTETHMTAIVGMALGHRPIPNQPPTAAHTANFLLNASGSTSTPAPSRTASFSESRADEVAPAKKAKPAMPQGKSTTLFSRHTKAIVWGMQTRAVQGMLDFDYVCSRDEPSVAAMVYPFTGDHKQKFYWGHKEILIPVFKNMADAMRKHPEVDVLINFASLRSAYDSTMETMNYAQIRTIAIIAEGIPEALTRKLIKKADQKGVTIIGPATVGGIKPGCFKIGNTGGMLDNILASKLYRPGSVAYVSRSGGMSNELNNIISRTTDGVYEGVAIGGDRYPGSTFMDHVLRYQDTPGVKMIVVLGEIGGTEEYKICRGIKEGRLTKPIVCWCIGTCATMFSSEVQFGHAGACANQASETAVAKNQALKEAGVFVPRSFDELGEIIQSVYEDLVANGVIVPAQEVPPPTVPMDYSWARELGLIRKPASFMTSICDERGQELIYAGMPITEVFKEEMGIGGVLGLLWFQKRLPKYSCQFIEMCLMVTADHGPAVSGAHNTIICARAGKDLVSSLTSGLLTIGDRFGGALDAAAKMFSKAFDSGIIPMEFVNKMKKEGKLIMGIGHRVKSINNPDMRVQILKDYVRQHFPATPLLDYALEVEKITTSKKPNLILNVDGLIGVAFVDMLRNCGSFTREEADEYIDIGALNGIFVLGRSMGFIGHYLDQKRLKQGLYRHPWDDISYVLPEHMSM

IC50, 0.5 to 20 µM:
O=C(O)c1ccc(-c2ccccc2)cc1NS(=O)(=O)CC1CCCC1 [I-274]
O=C(O)c1ccc(-c2ccccc2)cc1NS(=O)(=O)c1cc(Br)cc2c1OCCNC2=O [I-359]
O=C(O)c1cc(-c2ccccc2)ccc1NS(=O)(=O)c1cc(Cl)cc(Cl)c1 [I-278, 4-((3,5-dichlorophenyl)sulfonamido)-[1,1′-biphenyl]-3-carboxylic acid]
O=C(O)c1ccc(-c2ccccc2)cc1NS(=O)(=O)c1cc(Cl)cc(-c2nccs2)c1 [I-234, 3-((3-chloro-5-(thiazol-2-yl)phenyl)sulfonamido)-[1,1′-biphenyl]-4-carboxylic Acid]
O=C(O)COc1c(Cl)cc(Cl)cc1S(=O)(=O)Nc1cc(-c2ccccc2)c(F)cc1F [I-77, 2-(2,4-dichloro-6-(N-(4,6-difluoro-[1,1′-biphenyl]-3-yl)sulfamoyl)phenoxy)acetic Acid]
O=C(O)c1ccc(-c2ccccc2)cc1NS(=O)(=O)c1ccc2[nH]c(=O)[nH]c2c1 [I-258]
O=C(Nc1ccccc1)c1ccc(F)c(NS(=O)(=O)c2cc(Cl)cc(Cl)c2O)c1 [I-61, 3-((3,5-dichloro-2-hydroxyphenyl)sulfonamido)-4-fluoro-N-phenylbenzamide]
O=C(O)c1c(NS(=O)(=O)c2cc(Cl)cc(Cl)c2)sc2c1CCCC2 [I-363, 2-((3,5-dichlorophenyl)sulfonamido)-4,5,6,7-tetrahydrobenzo[b]thiophene-3-carboxylic Acid]
O=C(O)c1ccc(-c2ccccc2)cc1NS(=O)(=O)CC1CCC1 [I-307, 3-((cyclobutylmethyl)sulfonamido)-[1,1′-biphenyl]-4-carboxylic Acid]
COc1ccc(-c2ccccc2)cc1NS(=O)(=O)c1cc(Cl)c(O)c(Br)c1 [I-44, 3-bromo-5-chloro-4-hydroxy-N-(2-methoxy-5-phenylphenyl)benzene-1-sulfonamide]
COC(=O)COc1c(Cl)cc(Cl)cc1S(=O)(=O)Nc1cc(-c2ccccc2)c(F)cc1F [I-79, Methyl 2-[2,4-dichloro-6-[(2,4-difluoro-5-phenylphenyl)sulfamoyl]phenoxy]acetate]
NC(=O)Cc1ccc(-c2ccccc2)cc1NS(=O)(=O)c1cc(Cl)cc(Cl)c1 [I-245, 2-(3-((3,5-dichlorophenyl)sulfonamido)-[1,1′-biphenyl]-4-yl)acetamide]
COC(=O)c1ncccc1S(=O)(=O)Nc1cc(-c2ccccc2)ccc1F [I-250]
O=S(=O)(Nc1cc(-c2ccccc2)c(F)cc1F)c1cc(Cl)cc(Br)c1 [I-246, 3-bromo-5-chloro-N-(4,6-difluoro-[1,1′-biphenyl]-3-yl)benzenesulfonamide]
CN(c1cc(-c2ccccc2)ccc1F)S(=O)(=O)c1cc(Cl)cc(Br)c1O [I-370, 3-bromo-5-chloro-N-(4-fluoro-[1,1′-biphenyl]-3-yl)-2-hydroxy-N-methylbenzenesulfonamide]
Cc1cccc(CS(=O)(=O)Nc2cc(-c3ccccc3)ccc2C(=O)O)c1 [I-310, 3-((m-tolylmethyl)sulfonamido)-[1,1′-biphenyl]-4-carboxylic acid]
O=C(O)c1ccc(-c2ccccc2)cc1NS(=O)(=O)CCc1ccccc1 [I-259]
CN(C)C(=O)c1cc(Cl)c(O)c(S(=O)(=O)Nc2cc(-c3ccccc3)ccc2C(=O)O)c1 [I-271, 3-((3-chloro-5-(dimethylcarbamoyl)-2-hydroxyphenyl)sulfonamido)-[1,1′-biphenyl]-4-carboxylic Acid]
O=S(=O)(Nc1cc(-c2ccccc2)ccc1O)c1cccc(-c2nn[nH]n2)c1 [I-25, N-(2-hydroxy-5-phenylphenyl)-3-(2H-1,2,3,4-tetrazol-5-yl) benzene-1-sulfonamide]
CC(=O)N1CCCN(c2ccc(-c3ccccc3)cc2NS(=O)(=O)c2cc(Cl)cc(Cl)c2O)CC1 [I-279, N-[4-(4-acetyl-1,4-diazepan-1-yl)-[1,1-biphenyl]-3-yl]-3,5-dichloro-2-hydroxybenzene-1-sulfonamide]
CC(=O)N1CCCN(c2ccc(F)cc2NS(=O)(=O)c2cc(Cl)cc(Cl)c2O)CC1 [I-175]
O=S(=O)(Nc1ccc(F)cc1F)c1cc(Cl)cc(Cl)c1O [I-219, 3,5-dichloro-N-(2,4-difluorophenyl)-2-hydroxybenzene-1-sulfonamide]
O=C(Oc1c(Cl)cc(C(=O)N2CCC2)cc1S(=O)(=O)N(C(=O)C1CC1)c1cc(-c2ccccc2)c(F)cc1F)C1CC1 [I-217, 4-(azetidine-1-carbonyl)-2-chloro-6-[(1-cyclopropyl-N-[4,6-difluoro-[1,1-biphenyl]-3-yl]formamido)sulfonyl]phenylcyclopropanecarboxylate]
COc1c(Cl)cc(C(=O)O)cc1S(=O)(=O)Nc1cc(-c2ccccc2)ccc1F [I-70, 3-chloro-5-([4-fluoro-[1,1-biphenyl]-3-yl]sulfamoyl)-4-methoxybenzoic Acid]
O=S(=O)(Nc1cc(-c2ccccc2)ccc1F)c1cc(Cl)cc(Cl)c1Oc1nccs1 [I-97, 3,5-dichloro-N-(2-fluoro-5-phenylphenyl)-2-(1,3-thiazol-2-yloxy)benzene-1-sulfonamide]
COC(=O)COc1c(Br)cc(Cl)cc1S(=O)(=O)Nc1cc(-c2ccccc2)ccc1F [I-78, Methyl 2-(2-bromo-4-chloro-6-(N-(4-fluoro-[1,1′-biphenyl]-3-yl)sulfamoyl)phenoxy)acetate]
O=C(c1cc(Cl)c(O)c(S(=O)(=O)Nc2ccccc2F)c1)N1CCC1 [I-268, 5-(azetidine-1-carbonyl)-3-chloro-N-(2-fluorophenyl)-2-hydroxybenzene-1-sulfonamide]
COc1ccc(-c2ccccc2)cc1NS(=O)(=O)c1cc(Cl)c[nH]c1=O [I-354, 5-chloro-N-[4-methoxy-[1,1-biphenyl]-3-yl]-2-oxo-1,2-dihydropyridine-3-sulfonamide]
C=CCN(c1cc(-c2ccccc2)ccc1F)S(=O)(=O)c1cc(C(=O)OC)cc(Cl)c1O [I-108, Methyl 3-(N-allyl-N-(4-fluoro-[1,1′-biphenyl]-3-yl)sulfamoyl)-5-chloro-4-hydroxybenzoate]
O=C(O)c1ccc(-c2ccccc2)cc1NS(=O)(=O)c1cc(Cl)cc(Cl)c1F [I-342, 3-((3,5-dichloro-2-fluorophenyl)sulfonamido)-[1,1′-biphenyl]-4-carboxylic Acid]
COc1ccc(-c2ccccc2)cc1NS(=O)(=O)c1cc(-c2nn[nH]n2)cc(Cl)c1OC [I-71, 3-chloro-2-methoxy-N-(2-methoxy-5-phenylphenyl)-5-(2H-1,2,3,4-tetrazol-5-yl)benzene-1-sulfonamide]
NC(=O)COc1c(Cl)cc(Cl)cc1S(=O)(=O)Nc1cc(-c2ccccc2)ccc1F [I-151, 2-(2,4-dichloro-6-(N-(4-fluoro-[1,1′-biphenyl]-3-yl)sulfamoyl)phenoxy)acetamide]
O=C(O)c1ccc(-c2ccccc2)cc1NS(=O)(=O)c1ccc(-n2cccn2)c(F)c1 [I-358]
CC(=O)c1cccc(S(=O)(=O)Nc2cc(-c3ccccc3)ccc2C(=O)O)c1 [I-314, 3-((3-acetylphenyl)sulfonamido)-[1,1′-biphenyl]-4-carboxylic Acid]
COc1ccc(-c2ccccc2)cc1NS(=O)(=O)c1cc(Cl)cc(Cl)c1NS(C)(=O)=O [I-263, 3,5-dichloro-2-methanesulfonamido-N-[4-methoxy-[1,1-biphenyl]-3-yl]benzene-1-sulfonamide]
COc1ccc(-c2ccccc2)cc1NS(=O)(=O)c1cc(C(=O)N2CCNCC2)cc(Cl)c1O [I-277, 3-chloro-2-hydroxy-N-[4-methoxy-[1,1-biphenyl]-3-yl]-5-(piperazine-1-carbonyl)benzene-1-sulfonamide]
O=S(=O)(Nc1cc(-c2ccccc2)c(F)cc1F)c1ccccc1O [I-230, N-[4,6-difluoro-[1,1-biphenyl]-3-yl]-2-hydroxybenzene-1-sulfonamide]

IC50, > 20 µM:
O=S(=O)(Nc1cc(-c2ccccc2)c(F)cc1F)c1cccc2c1OCCO2 [I-383, N-[4,6-difluoro-[1,1-biphenyl]-3-yl]-2,3-dihydro-1,4-benzodioxine-5-sulfonamide]
COc1ccc(-c2ccccc2)cc1NS(=O)(=O)c1c(C)nn(C)c1Cl [I-400, 5-chloro-N-(4-methoxy-[1,1′-biphenyl]-3-yl)-1,3-dimethyl-1H-pyrazole-4-sulfonamide]
Cc1ccc(S(=O)(=O)Nc2cc(-c3ccccc3)ccc2F)c(C)c1OCC(=O)O [I-526, 2-(3-(N-(4-fluoro-[1,1′-biphenyl]-3-yl)sulfamoyl)-2,6-dimethylphenoxy)acetic acid]
O=S(=O)(Nc1ccc(-c2ccccc2)cc1F)c1cccc2ncoc12 [I-393, N-(3-fluoro-[1,1′-biphenyl]-4-yl)benzo[d] oxazole-7-sulfonamide]
COC(=O)c1cc(Cl)cc(S(=O)(=O)Nc2cc(-c3ccccc3)ccc2OC)c1O [I-431, Methyl 5-chloro-2-hydroxy-3-(N-(4-methoxy-[1,1′-biphenyl]-3-yl)sulfamoyl)benzoate]
Cc1cccc(C(=O)O)c1NS(=O)(=O)c1cc(Cl)cc(Cl)c1 [I-533, 2-((3,5-dichlorophenyl)sulfonamido)-3-methylbenzoic acid]
COc1ccc(-c2ccccc2)cc1NS(=O)(=O)c1cc(Cl)cc(Cl)c1OC [I-402, 3,5-dichloro-2-methoxy-N-(4-methoxy-[1,1′-biphenyl]-3-yl)benzenesulfonamide]
COc1ccc(-c2ccccc2)cc1NS(=O)(=O)c1cccc(C(=O)O)c1 [I-406, 3-(N-(4-methoxy-[1,1′-biphenyl]-3-yl)sulfamoyl)benzoic acid]

same assay, conditions: read-out: ACL-ADP-Glo (IC50); 3 nM ACL, 15 μM ATP, 3 μM CoA, 300 μM Citrate

IC50, < 0.05 µM:
CCOC(=O)c1cc(Cl)c(O)c(S(=O)(=O)Nc2cc(-c3cc4ccccc4s3)c(F)cc2OC)c1 [I-506, ethyl 3-(N-(5-(benzo[b]thiophen-2-yl)-4-fluoro-2-methoxyphenyl)sulfamoyl)-5-chloro-4-hydroxybenzoate]
